Measurements reported in patent US12290519B2, “Anti-inflammatory coupling compound drug, and preparation method therefor and use thereof” (COVAL BIOPHARMA (SHANGHAI) CO., LTD., priority 2021, dated 2025).

Test: Hydrolysis rate / drug release rate of the compounds (release of JAK inhibitor, HPLC)
Format: physicochemical
Conditions: % release of JAK inhibitor from sample in acetonitrile/water=7/3 (v/v), 37° C. constant temperature shaker, sampled days 1-4, HPLC
Description: Analysis Method for Hydrolysis Rate of Compounds of the Present Invention
1. Preparation of Standard Working Curve Solution
(§1) About 10 mg of JAK inhibitors (tofacitinib and baricitinib) reference substances were weighed into a 25 mL volumetric flask, acetonitrile/water=7/3 (v/v) was added to dissolve and dilute to the marked volume, serving as a stock solution. The stock solution was diluted with a suitable dilution factor to obtain linear solutions of each concentration: 0.0002 mg/mL, 0.0004 mg/mL, 0.004 mg/mL, 0.04 mg/mL, and 0.08 mg/mL.
as §1, with “(Oclacitinib, Ruxolitinib, Delgocitinib,” for “(tofacitinib”, “Upadacitinib)” for “baricitinib)”
2. Preparation of Sample Solution
About 5 mg of the sample (the compound prepared in the present invention) was weighed into a 20 mL volumetric flask, acetonitrile/water=7/3 (v/v) was added to dissolve and dilute to the marked volume, serving as a stock solution. An appropriate amount of HPLC was loaded as the 0-day sample. The test solution was sealed with a sealing film and placed in a 37° C. constant temperature shaker. The test samples were taken at the same time on days 1, 2, 3, and 4 respectively. the release amount of JAK inhibitor in the sample was calculated according to the sample weight and JAK inhibitor standard curve.
3. Calculation Formula % Release of JAK Inhibitor r=100%×((AJAK Inhibitor−b)/a)/((W/20×M2/M1) wherein • AJAK inhibitor is the peak area of JAK inhibitor in the sample chromatogram • b is the intercept of the standard curve M1 is the molecular weight of the sample a is the slope of the standard curve
W is the sample weight (mg) M2 is the molecular weight of the JAK inhibitor
4. Chromatographic Conditions

CC(C(=O)n1ccc2c(-c3cnn([C@H](CC#N)C4CCCC4)c3)ncnc21)c1cccc(C(=O)c2ccccc2)c1 (stereo partly drawn) [Ex. 32, (3R)-3-(4-(7-(2-(3-benzoylphenyl)propanoyl)-7H-pyrrolo [2,3-d]pyrimidin-4-yl)-1H-pyrazol-1-yl)-3-cyclopentylpropanenitrile]
Release Rate (%/day): 7.12 %/day

CC(C(=O)n1ccc2c(-c3cnn([C@H](CC#N)C4CCCC4)c3)ncnc21)c1ccc(-c2ccccc2)c(F)c1 (stereo partly drawn) [Ex. 33, (3R)-3-cyclopentyl-3-(4-(7-(2-(2-fluoro-[1, 1′-biphenyl]-4-yl)propanoyl)-7H-pyrrolo [2,3-d]pyrimidin-4-yl)-1H-pyrazol-1-yl) propanenitrile]
Release Rate (%/day): 5.01 %/day

CCC(C(=O)n1ccc2c(-c3cnn([C@H](CC#N)C4CCCC4)c3)ncnc21)c1ccc(N2Cc3ccccc3C2=O)cc1 (stereo partly drawn) [Ex. 34, (3R)-3-cyclopentyl-3-(4-(7-(2-(4-(1-oxoisoindolin-2-yl)phenyl)butanoyl)-7H-pyrrolo [2,3-d]pyrimidin-4-yl)-1H-pyrazol-1-yl) propanenitrile]
Release Rate (%/day): 1.57 %/day

CCC(C(=O)n1ccc2c(N(C)C3CCC(CS(=O)(=O)NC)CC3)ncnc21)c1ccc(N2Cc3ccccc3C2=O)cc1 (stereo not drawn) [Ex. 35, N-methyl-1-((trans)-4-(methyl (7-(2-(4-(1-oxoisoindolin-2-yl)phenyl)butanoyl)-7H-pyrrolo [2,3-d]pyrimidin-4-yl)amino)cyclohexyl) methanesulfonamide]
Release Rate (%/day): 4.57 %/day

CNS(=O)(=O)CC1CCC(N(C)c2ncnc3c2ccn3C(=O)C(C)c2ccc(-c3ccccc3)c(F)c2)CC1 (stereo not drawn) [Ex. 36, 1-((Trans)-4-((7-(2-(2-fluoro-[1, 1′-biphenyl]-4-yl)propanoyl)-7H-pyrrolo [2,3-d]pyrimidin-4-yl) (methyl)amino)cyclohexyl)-N-methyl methanesulfonamide]
Release Rate (%/day): 14.98 %/day

CCc1cccc2c3c([nH]c12)C(CC)(CC(=O)n1ccc2c(N(C)C4CCC(CS(=O)(=O)NC)CC4)ncnc21)OCC3 (stereo not drawn) [Ex. 37, 1-((Trans)-4-((7-(2-(1,8-diethyl-1,3,4,9-tetrahydropyrano [3,4-b]indol-1-yl)acetyl)-7H-pyrrolo [2,3-d]pyrimidin-4-yl) (methyl)amino)cyclohexyl)-N-methyl methanesulfonamide]
Release Rate (%/day): 1.05 %/day

CNS(=O)(=O)CC1CCC(N(C)c2ncnc3c2ccn3C(=O)C(C)c2cccc(C(=O)c3ccccc3)c2)CC1 (stereo not drawn) [Ex. 38, 1-((Trans)-4-((7-(2-(3-benzoylphenyl)propanoyl)-7H-pyrrolo [2,3-d]pyrimidin-4-yl) (methyl)amino)cyclohexyl)-N-methyl methanesulfonamide]
Release Rate (%/day): 18.42 %/day

CNS(=O)(=O)CC1CCC(N(C)c2ncnc3c2ccn3C(=O)[C@@H](C)c2ccc3cc(OC)ccc3c2)CC1 (stereo partly drawn) [Ex. 39, 1-((Trans)-4-((7-((S)-2-(6-methoxynaphthalen-2-yl)propanoyl)-7H-pyrrolo [2,3-d]pyrimidin-4-yl) (methyl)amino)cyclohexyl)-N-methyl methanesulfonamide]
Release Rate (%/day): 10.11 %/day

CCS(=O)(=O)N1CC(CC#N)(n2cc(-c3ncnc4c3ccn4C(=O)c3ccccc3Nc3cccc(Cl)c3C)cn2)C1 [Ex. 40, 2-(3-(4-(7-(2-((3-Chloro-2-methylphenyl)amino)benzoyl)-7H-pyrrolo [2,3-d]pyrimidin-4-yl)-1H-pyrazol-1-yl)-1-(ethylsulfonyl)azetidin-3-yl) acetonitrile]
Release Rate (%/day): 0.62 %/day

CNS(=O)(=O)CC1CCC(N(C)c2ncnc3c2ccn3C(=O)c2ccccc2Nc2cccc(Cl)c2C)CC1 (stereo not drawn) [Ex. 41, 1-((Trans)-4-((7-(2-((3-chloro-2-methylphenyl)amino)benzoyl)-7H-pyrrolo [2,3-d]pyrimidin-4-yl) (methyl)amino)cyclohexyl)-N-methyl methanesulfonamide]
Release Rate (%/day): 4.27 %/day

CNS(=O)(=O)C[C@H]1CC[C@H](N(C)c2ncnc3c2ccn3C(=O)Cc2c(C)n(C(=O)c3ccc(Cl)cc3)c3ccc(OC)cc23)CC1 [Ex. 42, 1-((Trans)-4-((7-(2-(1-(4-chlorobenzoyl)-5-methoxy-2-methyl-1H-indol-3-yl)acetyl)-7H-pyrrolo [2,3-d]pyrimidin-4-yl) (methyl)amino)cyclohexyl)-N-methylmethanesulfonamide]
Release Rate (%/day): 22.18 %/day

CNS(=O)(=O)C[C@H]1CC[C@H](N(C)c2ncnc3c2ccn3C(=O)c2ccccc2Nc2cccc(C)c2C)CC1 [Ex. 43, 1-((trans)-4-((7-(2-((2,3-dimethylphenyl)amino)benzoyl)-7H-pyrrolo [2,3-d]pyrimidin-4-yl) (methyl)amino)cyclohexyl)-N-methyl methanesulfonamide]
Release Rate (%/day): 2.99 %/day

CNS(=O)(=O)C[C@H]1CC[C@H](N(C)c2ncnc3c2ccn3C(=O)C(C)c2ccc(CC3CCCC3=O)cc2)CC1 (stereo partly drawn) [Ex. 44, N-methyl-1-((trans)-4-(methyl (7-(2-(4-((2-oxocyclopentyl)methyl)phenyl)propanoyl)-7H-pyrrolo [2,3-d]pyrimidin-4-yl)amino)cyclohexyl) methanesulfonamide]
Release Rate (%/day): 10.18 %/day

CCc1cccc2c3c([nH]c12)C(CC)(CC(=O)n1ccc2c(-c4cnn([C@H](CC#N)C5CCCC5)c4)ncnc21)OCC3 (stereo partly drawn) [Ex. 45, (3R)-3-cyclopentyl-3-(4-(7-(2-(1,8-diethyl-1,3,4,9-tetrahydropyran [3,4-b]indol-1-yl)acetyl)-7H-pyrrolo [2,3-d]pyrimidin-4-yl)-1H-pyrazol-1-yl) propanenitrile]
Release Rate (%/day): 1.93 %/day

CNS(=O)(=O)C[C@H]1CC[C@H](N(C)c2ncnc3c2ccn3C(=O)[C@@H](NC(=O)OC(C)(C)C)c2ccccc2)CC1 [Ex. 46, tert-butyl ((S)-2-(4-(methyl ((trans)-4-((N-methylsulfamoyl)methyl)cyclohexyl)amino)-7H-pyrrolo [2,3-d]pyrimidin-7-yl)-2-oxo-1-phenylethyl) carbamate]
Release Rate (%/day): 25.52 %/day

CCS(=O)(=O)N1CC(CC#N)(n2cc(-c3ncnc4c3ccn4C(=O)c3ccccc3Nc3cccc(C)c3C)cn2)C1 [Ex. 47, 2-(3-(4-(7-(2-((2,3-Dimethylphenyl)amino)benzoyl)-7H-pyrrolo [2,3-d]pyrimidin-4-yl)-1H-pyrazol-1-yl)-1-(ethylsulfonyl)azetidin-3-yl) acetonitrile]
Release Rate (%/day): 0.36 %/day

COc1ccc2cc([C@H](C)C(=O)OCn3ccc4c(N(C)[C@H]5CN(C(=O)CC#N)CC[C@H]5C)ncnc43)ccc2c1 [Ex. 48, 4-(((3R, 4R)-1-(2-cyanoacetyl)-4-methylpiperidin-3-yl) (methyl)amino)-7H-pyrrolo [2,3-d] pyrimidin-7-yl) methyl (S)-2-(6-methoxynaphthalen-2-yl) propanoate]
Release Rate (%/day): 0.03 %/day

CC(C(=O)OCn1ccc2c(N(C)[C@H]3CN(C(=O)CC#N)CC[C@H]3C)ncnc21)c1cccc(C(=O)c2ccccc2)c1 (stereo partly drawn) [Ex. 49, (4-(((3R, 4R)-1-(2-cyanoacetyl)-4-methylpiperidin-3-yl) (methyl)amino)-7H-pyrrolo [2,3-d]pyrimidin-7-yl) methyl 2-(3-benzoylphenyl) propanoate]
Release Rate (%/day): 0.11 %/day

CC(C(=O)OCn1ccc2c(N(C)[C@H]3CN(C(=O)CC#N)CC[C@H]3C)ncnc21)c1ccc(-c2ccccc2)c(F)c1 (stereo partly drawn) [Ex. 50, (4-(((3R, 4R)-1-(2-cyanoacetyl)-4-methylpiperidin-3-yl) (methyl)amino)-7H-pyrrolo [2,3-d]pyrimidin-7-yl) methyl 2-(2-fluoro-[1, 1′-biphenyl]-4-yl) propanoate]
Release Rate (%/day): 0.05 %/day

C[C@@H]1CCN(C(=O)CC#N)C[C@@H]1N(C)c1ncnc2c1ccn2COC(=O)Cc1ccccc1Nc1c(Cl)cccc1Cl [Ex. 51, (4-(((3R, 4R)-1-(2-cyanoacetyl)-4-methylpiperidin-3-yl) (methyl)amino)-7H-pyrrolo [2,3-d]pyrimidin-7-yl) methyl 2-(2-((2,6-dichlorophenyl)amino)phenyl) acetate]
Release Rate (%/day): 0.35 %/day

CC(C(=O)OCn1ccc2c(N(C)[C@H]3CN(C(=O)CC#N)CC[C@H]3C)ncnc21)c1cccc(Oc2ccccc2)c1 (stereo partly drawn) [Ex. 52, (4-(((3R, 4R)-1-(2-cyanoacetyl)-4-methylpiperidin-3-yl) (methyl)amino)-7H-pyrrolo [2,3-d]pyrimidin-7-yl) methyl 2-(3-phenoxyphenyl) propanoate]
Release Rate (%/day): 0.1 %/day

CC(C(=O)OCn1ccc2c(N(C)[C@H]3CN(C(=O)CC#N)CC[C@H]3C)ncnc21)c1ccc(CC2CCCC2=O)cc1 (stereo partly drawn) [Ex. 53, (4-(((3R, 4R)-1-(2-cyanoacetyl)-4-methylpiperidin-3-yl) (methyl)amino)-7H-pyrrolo [2,3-d]pyrimidin-7-yl) methyl 2-(4-((2-oxocyclopentyl)methyl)phenyl) propanoate]
Release Rate (%/day): 0.06 %/day
